# Test results reported in patent US20190374563A1, “TREATMENT OF KLEBSIELLA PNEUMONIAE INFECTIONS WITH ANTIBACTERIAL AMINOGLYCOSIDE COMPOUNDS” (Achaogen, Inc., priority 2009, published 2019).
# How the values were obtained:
# [1] = tested on: K. pneumoniae AKPN 1073 (MDR, AG-resistant clinical isolate); test: murine neutropenic thigh model; assay type: in vivo; conditions: two highest dosages; AKPN 1073, challenge 1.3×10^4 CFU; FIG. 3
# Method: (§1) The in vivo activity of Example 1 in the mouse neutropenic thigh model (Andes and Craig. Antimicrob Agents Chemother. 2002, 46:1665-1670) was determined against seven bacterial strains including susceptible Escherichia coli and Klebsiella pneumoniae; multi-drug resistant (MDR) clinical isolates of E. coli and K. pneumoniae that display resistance to multiple antibiotics (including AGs); MRSA; and two K. pneumoniae carbapenemases (KPC)-expressing strains (see Table 5). For this efficacy model, groups of six CD-1 mice were rendered neutropenic by two intraperitoneal injections of cyclophosphamide. The first injection was 150 mg/kg three days prior to infection (day −4), and the second injection was 100 mg/kg one day prior to infection (day −1). On study day 0, animals were inoculated intramuscularly (0.1 ml) with a known number of colony forming units (CFU) of the specified bacterial strain (ATCC 25922, AECO 1003, ATCC 43816, AKPN 1073, AKPN 1109, ATCC 33591 or ASMA 1030), tailored to the virulence of each strain in the model to maximize bacterial load while avoiding mortality in the untreated control arms. Antibiotics were administered via subcutaneous injection at 2 and 14 hours after bacterial challenge. At 26 hours, infected thigh tissue was harvested, homogenized, and plated to count CFU. […]
# [2] = tested on: K. pneumoniae ATCC 43816 (susceptible); test: murine neutropenic thigh model; assay type: in vivo
# Method: (§2) The in vivo activity of Example 1 in the mouse neutropenic thigh model (Andes and Craig. Antimicrob Agents Chemother. 2002, 46:1665-1670) was determined against seven bacterial strains including susceptible Escherichia coli and Klebsiella pneumoniae; multi-drug resistant (MDR) clinical isolates of E. coli and K. pneumoniae that display resistance to multiple antibiotics (including AGs); MRSA; and two K. pneumoniae carbapenemases (KPC)-expressing strains (see Table 5). For this efficacy model, groups of six CD-1 mice were rendered neutropenic by two intraperitoneal injections of cyclophosphamide. The first injection was 150 mg/kg three days prior to infection (day −4), and the second injection was 100 mg/kg one day prior to infection (day −1). On study day 0, animals were inoculated intramuscularly (0.1 ml) with a known number of colony forming units (CFU) of the specified bacterial strain (ATCC 25922, AECO 1003, ATCC 43816, AKPN 1073, AKPN 1109, ATCC 33591 or ASMA 1030), tailored to the virulence of each strain in the model to maximize bacterial load while avoiding mortality in the untreated control arms. Antibiotics were administered via subcutaneous injection at 2 and 14 hours after bacterial challenge. At 26 hours, infected thigh tissue was harvested, homogenized, and plated to count CFU. Untreated control animals were harvested at 2 hours post-infection to assess the initial bacterial load and at 26 hours post-infection to measure growth in the absence of antibiotic treatment.
# [3] = tested on: K. pneumoniae AKPN 1109 (KPC-expressing clinical isolate); test: murine neutropenic thigh model; assay type: in vivo; conditions: highest test dosage; AKPN 1109, challenge 8.3×10^5 CFU; FIG. 4
# Method: as §2
# [4] = tested on: E. coli ATCC 25922 (susceptible); test: murine neutropenic thigh model; assay type: in vivo
# Method: as §2
# seven bacterial strains = test: murine neutropenic thigh model, statements over all strains; assay type: in vivo
# Method: as §2
# E. coli ATCC 25922 = test: murine septicemia model of infection; assay type: in vivo; conditions: mice, single SC or IV dose 1 hour after IP challenge, mortality for 7 days; ED50 values are mg/kg
# Method: (§3) Two models were run on each compound, using E. coli and P. aeruginosa QC bacterial strains. Both studies employed the same design. […] At 1 hour after bacterial challenge, the mice received a single SC or IV dose of vehicle or test substance to assess in vivo anti-infective activity. Mortality was recorded once daily for 7 days after bacterial inoculation.
# P. aeruginosa ATCC 27853 = test: murine septicemia model of infection; assay type: in vivo; conditions: mice, single SC or IV dose 1 hour after IP challenge, mortality for 7 days; ED50 values are mg/kg
# Method: as §3
# [5] = tested on: S. aureus ATCC 33591 (MRSA); test: murine neutropenic thigh model; assay type: in vivo; conditions: two highest dosages; MRSA ATCC 33591, challenge 1.2×10^3 CFU; FIG. 5
# Method: as §1
# [6] = tested on: E. coli AECO 1003 (MDR, AG-resistant clinical isolate); test: murine neutropenic thigh model; assay type: in vivo; conditions: highest dosage; AECO 1003, challenge 1.5×10^3 CFU; FIG. 2
# Method: as §1
# [7] = tested on: K. pneumoniae producing KPC (n = 25); test: MIC by microdilution, clinical isolates; assay type: cell-based; conditions: Klebsiella pneumoniae, K. pneumoniae producing KPC (n = 25)
# Method: (§4) The in vitro activity of representative antibacterial aminoglycoside compounds against a collection of 102 K. pneumoniae clinical isolates collected from January 2006 to October 2007 at the University of Pittsburgh Medical Center, and three Cleveland institutions including University Hospitals Case Medical Center, the Cleveland Clinic, and the Louis Stokes Department of Veterans Affairs Medical Center was analyzed. The 102 K. pneumoniae isolates were selected based on a multidrug-resistant (MDR) phenotype (i.e., resistance to >3 antibiotic classes). Twenty-five isolates were KPC carbapenemase producing (KPC-Kp), and were part of a previous study where the β-lactamase background and clonality were characterized (see Endimiani, A., A. M. Hujer, F. Perez, C. R. Bethel, K. M. Hujer, J. Kroeger, M. Oethinger, D. L. Paterson, M. D. Adams, M. R. Jacobs, D. J. Diekema, G. S. Hall, S. G. Jenkins, L. B. Rice, F. C. Tenover, and R. A. Bonomo. 2009. Characterization of blaKPC-containing Klebsiella pneumoniae isolates detected in different institutions in the Eastern USA. J Antimicrob Chemother 63:427-37).
# (§5) Minimum inhibitory concentrations (MICs) were performed by microdilution method using cation-adjusted Mueller-Hinton broth, according to the Clinical and Laboratory Standards Institute (CLSI) criteria (see CLSI. 2006. Methods for dilution antimicrobial susceptibility tests for bacteria that grow aerobically; approved standard-Seventh edition. Clinical and Laboratory Standard Institute, Wayne, Pa. CLSI document M7-A7). These MIC assays were conducted following the same protocol as set forth in Example 110. […] The following ATCC control strains were used: Escherichia coli ATCC 25922, Pseudomonas aeruginosa ATCC 27853, and K. pneumoniae ATCC 700603.
# [8] = tested on: multidrug-resistant (MDR) K. pneumoniae isolates (n = 102); test: MIC by microdilution, clinical isolates; assay type: cell-based
# Method: as §4, §5
# [9] = tested on: P. aeruginosa ATCC 27853 (APAE001); test: MIC assay, CLSI broth microdilution; assay type: cell-based; conditions: Pseudomonas aeruginosa; Table 1; APAE001 is ATCC27853; read-out: MIC APAE001
# Procedure, shortened: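 Broth microdilution per CLSI M7-A7, with serial two-fold compound dilutions in Mueller Hinton Broth mixed 1:1 with inoculum. Colonies from a previous-day agar plate were suspended in saline to a final 5×10^5 CFU/mL. Plates were incubated 20 hours at 35° C. in ambient air.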
smiles,measurement,setting,value
"CN[C@@H]1[C@@H](O)[C@@H](O[C@@H]2[C@@H](O)[C@H](O[C@H]3OC(CNCCO)=CC[C@H]3N)[C@@H](N)C[C@H]2NC(=O)[C@@H](O)CCN)OC[C@]1(C)O [Example 1, 6′-(2-Hydroxy-ethyl)-1-(4-amino-2(S)-hydroxy-butyryl)-sisomicin]",bacterial load after 24 hours of treatment versus initial bacterial load,[1],reduced to below the level of the initial bacterial load
same,ED50/MIC,[2],7.4
same,bacterial load after 24 hours of treatment versus initial bacterial load,[3],reduced back to the level of the initial bacterial load
same,ED50/MIC,[4],8.4
same,bacterial titers versus initial bacterial load (static level),seven bacterial strains; all 7 strains,reducing bacterial titers back to or below the initial bacterial load
same,ED50 against gentamicin resistant strains,seven bacterial strains; gentamicin resistant strains,efficacious
same,ratio of in vivo efficacy to in vitro activity (ED50/MIC),seven bacterial strains; in words,comparable to that of gentamicin
same,in vivo efficacy (ED50) against strains susceptible to gentamicin,"seven bacterial strains; strains susceptible to gentamicin, in words",comparable to gentamicin
same,ED50/MIC E. Coli,E. coli ATCC 25922,<2
same,ED50/MIC P. aeruginosa,P. aeruginosa ATCC 27853,4
same,bacterial load after 24 hours of treatment versus initial bacterial load,[5],reduced to below the initial bacterial load
same,bacterial titer after 24 hours of treatment versus initial bacterial load,[6],reduced to below the initial bacterial load
same,MIC50,[7]; read-out: MIC50,0.5 µg/mL
same,MIC90,[7]; read-out: MIC90,1 µg/mL
same,MIC50,"[8]; Klebsiella pneumoniae, Total MDR K. pneumoniae isolates (n = 102), read-out: MIC50",0.5 µg/mL
same,MIC90,"[8]; Klebsiella pneumoniae, Total MDR K. pneumoniae isolates (n = 102), read-out: MIC90",1 µg/mL
same,MIC,"[8]; Klebsiella pneumoniae, all MDR and KPC-Kp strains, read-out: MICs for all strains",≤ 4 µg/mL
same,MIC90 lower than that of amikacin,[8]; MDR and KPC-Kp strains,at least 5 twofold dilutions
same,MIC,[9],1 to 16 µg/mL
